# Experiments:
# Abl(h) = Abl(h) (Homo sapiens, UniProt P00519); assay: isolated kinase activity, Abl; type: biochemical; settings: compound @ 10 μM
# Source text: (§1) Table 8 illustrates percent activity of isolated kinases in the presence of the AstraZeneca ATP-competitive inhibitor (KX2-328, AZ-28) or KX2-391 relative to control (untreated) isolated kinases.
# CHK1(h) = CHK1(h) (Homo sapiens, UniProt O14757); assay: isolated kinase activity, CHK1; type: biochemical; settings: compound @ 10 μM
# Source text: as §1
# Fyn(h) = Fyn(h) (Homo sapiens, UniProt P06241); assay: isolated kinase activity, Fyn; type: biochemical; settings: compound @ 10 μM
# Source text: as §1
# IGF-1R(h) = IGF-1R(h) (Homo sapiens, UniProt P08069); assay: isolated kinase activity, IGF-1R; type: biochemical; settings: compound @ 10 μM
# Sequence of IGF-1R(h) (P08069 31-1367): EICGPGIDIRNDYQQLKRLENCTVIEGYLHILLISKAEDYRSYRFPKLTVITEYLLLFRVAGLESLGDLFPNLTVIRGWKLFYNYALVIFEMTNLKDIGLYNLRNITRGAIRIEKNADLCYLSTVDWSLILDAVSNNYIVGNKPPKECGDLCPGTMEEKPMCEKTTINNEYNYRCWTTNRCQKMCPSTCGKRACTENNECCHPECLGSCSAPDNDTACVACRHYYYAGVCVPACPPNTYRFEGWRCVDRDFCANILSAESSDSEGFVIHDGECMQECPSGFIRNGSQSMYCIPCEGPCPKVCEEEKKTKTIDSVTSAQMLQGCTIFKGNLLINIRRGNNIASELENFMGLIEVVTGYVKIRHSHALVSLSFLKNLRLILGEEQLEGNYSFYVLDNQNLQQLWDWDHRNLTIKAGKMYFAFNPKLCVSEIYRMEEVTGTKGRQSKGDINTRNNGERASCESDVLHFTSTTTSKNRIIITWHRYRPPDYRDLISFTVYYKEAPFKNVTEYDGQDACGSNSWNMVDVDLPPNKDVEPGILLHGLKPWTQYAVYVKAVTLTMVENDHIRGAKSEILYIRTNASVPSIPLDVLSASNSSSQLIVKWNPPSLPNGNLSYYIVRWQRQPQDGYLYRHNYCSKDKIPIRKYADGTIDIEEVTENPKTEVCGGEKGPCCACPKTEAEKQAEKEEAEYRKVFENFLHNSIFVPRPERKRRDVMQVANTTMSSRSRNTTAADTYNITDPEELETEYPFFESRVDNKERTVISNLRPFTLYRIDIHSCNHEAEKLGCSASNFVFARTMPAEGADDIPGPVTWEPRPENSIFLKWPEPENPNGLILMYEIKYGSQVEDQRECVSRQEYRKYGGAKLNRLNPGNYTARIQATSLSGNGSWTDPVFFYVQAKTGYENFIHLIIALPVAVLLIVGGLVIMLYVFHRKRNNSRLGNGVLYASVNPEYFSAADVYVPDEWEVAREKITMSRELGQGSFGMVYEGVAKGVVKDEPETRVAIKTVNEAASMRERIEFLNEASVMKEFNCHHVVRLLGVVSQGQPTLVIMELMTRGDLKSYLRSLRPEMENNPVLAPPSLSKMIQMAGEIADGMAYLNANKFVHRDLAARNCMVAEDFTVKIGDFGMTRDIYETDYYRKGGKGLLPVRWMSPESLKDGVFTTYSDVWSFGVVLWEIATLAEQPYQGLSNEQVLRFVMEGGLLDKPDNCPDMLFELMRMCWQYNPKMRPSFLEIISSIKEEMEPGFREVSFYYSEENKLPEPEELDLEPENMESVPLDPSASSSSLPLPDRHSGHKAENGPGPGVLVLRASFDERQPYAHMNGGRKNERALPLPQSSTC
# Source text: as §1
# IR(h) = IR(h) (Homo sapiens, UniProt P06213); assay: isolated kinase activity, IR; type: biochemical; settings: compound @ 10 μM
# Sequence of IR(h) (P06213 28-1382): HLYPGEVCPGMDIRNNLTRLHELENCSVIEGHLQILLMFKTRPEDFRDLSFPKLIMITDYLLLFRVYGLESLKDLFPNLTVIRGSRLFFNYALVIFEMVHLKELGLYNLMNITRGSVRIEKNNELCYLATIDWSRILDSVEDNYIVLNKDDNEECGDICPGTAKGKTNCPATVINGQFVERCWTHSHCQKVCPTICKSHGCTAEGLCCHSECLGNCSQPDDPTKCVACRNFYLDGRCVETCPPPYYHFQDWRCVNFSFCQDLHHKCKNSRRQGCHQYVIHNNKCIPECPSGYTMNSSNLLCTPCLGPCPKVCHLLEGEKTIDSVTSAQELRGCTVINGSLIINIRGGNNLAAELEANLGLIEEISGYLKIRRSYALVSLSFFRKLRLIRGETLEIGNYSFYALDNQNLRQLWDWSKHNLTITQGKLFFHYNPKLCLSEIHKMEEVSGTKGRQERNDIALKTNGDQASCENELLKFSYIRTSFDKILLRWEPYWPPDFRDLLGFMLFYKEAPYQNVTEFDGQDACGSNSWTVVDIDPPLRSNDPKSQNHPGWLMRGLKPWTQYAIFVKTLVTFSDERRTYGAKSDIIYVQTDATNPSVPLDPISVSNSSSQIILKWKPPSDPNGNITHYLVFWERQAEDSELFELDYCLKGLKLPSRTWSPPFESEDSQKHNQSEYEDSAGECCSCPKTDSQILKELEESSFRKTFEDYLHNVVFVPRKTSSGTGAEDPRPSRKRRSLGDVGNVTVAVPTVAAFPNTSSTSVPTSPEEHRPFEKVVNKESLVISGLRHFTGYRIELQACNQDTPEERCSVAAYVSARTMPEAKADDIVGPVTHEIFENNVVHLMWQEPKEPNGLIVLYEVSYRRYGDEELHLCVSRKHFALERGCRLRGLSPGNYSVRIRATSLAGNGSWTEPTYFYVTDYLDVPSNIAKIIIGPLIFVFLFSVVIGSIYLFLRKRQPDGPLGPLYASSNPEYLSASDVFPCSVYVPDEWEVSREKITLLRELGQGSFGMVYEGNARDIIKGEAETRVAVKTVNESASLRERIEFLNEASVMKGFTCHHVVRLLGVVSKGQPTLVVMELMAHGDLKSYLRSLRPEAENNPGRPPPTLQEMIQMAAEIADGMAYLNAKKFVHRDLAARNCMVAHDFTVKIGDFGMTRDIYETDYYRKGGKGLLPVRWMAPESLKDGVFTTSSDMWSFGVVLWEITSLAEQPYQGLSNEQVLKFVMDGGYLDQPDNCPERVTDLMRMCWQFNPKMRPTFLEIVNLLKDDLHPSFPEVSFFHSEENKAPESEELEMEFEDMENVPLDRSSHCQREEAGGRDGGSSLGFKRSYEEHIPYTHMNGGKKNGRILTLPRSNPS
# Source text: as §1
# Lck(h) = Lck(h) (Homo sapiens, UniProt P06239); assay: isolated kinase activity, Lck; type: biochemical; settings: compound @ 10 μM
# Sequence of Lck(h) (P06239 whole entry): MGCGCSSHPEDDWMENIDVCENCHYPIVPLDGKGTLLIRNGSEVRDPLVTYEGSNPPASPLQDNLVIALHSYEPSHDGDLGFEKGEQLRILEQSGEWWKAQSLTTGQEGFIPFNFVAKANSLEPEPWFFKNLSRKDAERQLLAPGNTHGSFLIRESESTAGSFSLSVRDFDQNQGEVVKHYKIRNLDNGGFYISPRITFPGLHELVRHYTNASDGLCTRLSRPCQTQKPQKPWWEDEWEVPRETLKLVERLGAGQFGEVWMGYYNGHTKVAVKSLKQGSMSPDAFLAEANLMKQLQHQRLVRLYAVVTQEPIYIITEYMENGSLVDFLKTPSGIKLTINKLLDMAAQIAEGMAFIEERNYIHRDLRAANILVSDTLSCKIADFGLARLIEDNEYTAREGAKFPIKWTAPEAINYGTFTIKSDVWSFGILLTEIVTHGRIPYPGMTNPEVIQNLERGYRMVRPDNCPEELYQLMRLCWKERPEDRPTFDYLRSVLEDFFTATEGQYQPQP
# Source text: as §1
# PDGFRβ(h) = PDGFRβ(h) (Homo sapiens, UniProt P09619); assay: isolated kinase activity, PDGFRβ; type: biochemical; settings: compound @ 10 μM
# Source text: as §1
# ZAP-70(h) = ZAP-70(h) (Homo sapiens, UniProt P43403); assay: isolated kinase activity, ZAP-70; type: biochemical; settings: compound @ 10 μM
# Sequence of ZAP-70(h) (P43403 whole entry): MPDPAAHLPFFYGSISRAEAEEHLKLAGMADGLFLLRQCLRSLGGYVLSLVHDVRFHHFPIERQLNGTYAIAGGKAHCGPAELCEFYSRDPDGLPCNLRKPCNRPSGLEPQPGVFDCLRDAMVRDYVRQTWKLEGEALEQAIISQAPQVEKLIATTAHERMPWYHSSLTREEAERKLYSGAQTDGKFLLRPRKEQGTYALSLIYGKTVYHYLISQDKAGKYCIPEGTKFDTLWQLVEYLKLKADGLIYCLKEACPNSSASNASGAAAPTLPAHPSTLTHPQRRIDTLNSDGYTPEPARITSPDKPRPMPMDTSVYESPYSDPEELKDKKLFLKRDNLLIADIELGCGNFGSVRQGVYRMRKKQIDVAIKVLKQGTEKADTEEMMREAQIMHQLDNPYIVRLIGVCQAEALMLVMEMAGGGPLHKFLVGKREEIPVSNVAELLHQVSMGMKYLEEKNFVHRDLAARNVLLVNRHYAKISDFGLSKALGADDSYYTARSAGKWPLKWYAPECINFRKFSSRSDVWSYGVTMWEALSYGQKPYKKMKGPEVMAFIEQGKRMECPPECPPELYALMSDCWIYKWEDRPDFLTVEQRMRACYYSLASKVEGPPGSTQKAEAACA
# Source text: as §1
# Paxillin Y-31 = assay: intracellular phosphorylation, Paxillin Y-31; type: cell-based; settings: c-Src527F/NIH-3T3 cells
# Experimental: (§2) HT29 (colon cancer) and c-Src527F/NIH-3T3 (Src transformed) cell lines were treated with KX2-391 or with AstraZeneca's ATP competitive Src inhibitor AZ28. AZ28 serves as a positive comparator to show what a validated Src inhibitor should do in these assays. After treatment with compound, cells were lysed, subjected to PAGE and probed with a battery of antibodies. […] In addition, off-target protein phosphorylation was also investigated. Further, induction of apoptosis was evaluated via Caspase 3 cleavage. Multiple doses of each compound were tested because the trends in response to increasing drug concentration are the most reliable indicator of activity.
# (§3) The same range of multiples of the GI50 for AZ28 in these two cell lines was run as a comparison.
# PC3-MM2 (Prostate) = assay: growth inhibition, PC3-MM2; type: cell-based, Human; settings: PC3-MM2 (Prostate) cells
# [1] = system: CCRF-HSB-2 (Adult lymphoblastic leukemia); assay: growth inhibition, CCRF-HSB-2; type: cell-based, Human; settings: read-out: GI50
# [2] = system: Ba/F3 + BCR-Abl T315I mutant; assay: MTT growth inhibition, Ba/F3 + BCR-Abl T315I; type: cell-based; settings: 96 hrs
# Source text: Cultures of Ba/F3 cells were also transfected to express wild-type (WT) Bcr-Abl, E255K mutation of Bcr-Abl, or T315I mutation of Bcr-Abl and cultured in 96-well plates in complete media without IL-3. The Ba/F3 cell line is rendered Gleevec resistant when the mutation in the Bcr/Abl tyrosine kinase […] is present. […] All assays are in triplicate.
# LN-18 = assay: brain tumor cell growth inhibition, LN-18; type: cell-based, Human; settings: LN-18, glioblastoma; glioma; read-out: IC50 (title: GI50)
# Caki-2 = assay: renal tumor cell growth inhibition, Caki-2; type: cell-based, Human; settings: Caki-2, clear cell carcinoma
# Experimental: These GI50s were determined using standard tumor growth inhibition assays, similar to those described in detail in this Example 7.
# H226 = assay: MTT growth inhibition, Dasatinib-resistant H226; type: cell-based, human; settings: H226, 8.0×10^3 cells/well, […] FBS, 78 Hr
# Experimental: Cell proliferation/growth inhibition was assessed using MTT colorimetric assay.
# On Day 3, 10 μL MTT (5 mg/mL) was added to each well. Cells were then incubated in the presence of MTT for 4 hours at 37° C., appropriate CO2 conditions. After this incubation period, 90 μL 10% SDS(+HCl) was added to each well to lyse cells and solubilize formazan. Cells were then incubated overnight at 37° C., appropriate CO2 conditions.
# The OD570 was measured using microplate reader. Growth inhibition curves and EC50/IC50 was determined using GraphPad Prism 4 statistical software.
# [3] = system: Src-Y416 autophosphorylation; assay: intracellular phosphorylation, Src autophosphorylation; type: cell-based; settings: HT29 and c-Src527F/NIH-3T3 cells, 0.2×-25× GI50
# Experimental: as §2, §3
# JAK1 Y1022/1023 = assay: whole cell phosphorylation, JAK1; type: cell-based; settings: whole cells
# Lck Y405 = assay: whole cell phosphorylation, Lck; type: cell-based; settings: whole cells
# ZAP70 Y319 = assay: whole cell phosphorylation, ZAP70; type: cell-based; settings: whole cells
# Lyn Y416 = assay: whole cell phosphorylation, Lyn; type: cell-based; settings: whole cells
# Sequence of Abl(h) (P00519 whole entry): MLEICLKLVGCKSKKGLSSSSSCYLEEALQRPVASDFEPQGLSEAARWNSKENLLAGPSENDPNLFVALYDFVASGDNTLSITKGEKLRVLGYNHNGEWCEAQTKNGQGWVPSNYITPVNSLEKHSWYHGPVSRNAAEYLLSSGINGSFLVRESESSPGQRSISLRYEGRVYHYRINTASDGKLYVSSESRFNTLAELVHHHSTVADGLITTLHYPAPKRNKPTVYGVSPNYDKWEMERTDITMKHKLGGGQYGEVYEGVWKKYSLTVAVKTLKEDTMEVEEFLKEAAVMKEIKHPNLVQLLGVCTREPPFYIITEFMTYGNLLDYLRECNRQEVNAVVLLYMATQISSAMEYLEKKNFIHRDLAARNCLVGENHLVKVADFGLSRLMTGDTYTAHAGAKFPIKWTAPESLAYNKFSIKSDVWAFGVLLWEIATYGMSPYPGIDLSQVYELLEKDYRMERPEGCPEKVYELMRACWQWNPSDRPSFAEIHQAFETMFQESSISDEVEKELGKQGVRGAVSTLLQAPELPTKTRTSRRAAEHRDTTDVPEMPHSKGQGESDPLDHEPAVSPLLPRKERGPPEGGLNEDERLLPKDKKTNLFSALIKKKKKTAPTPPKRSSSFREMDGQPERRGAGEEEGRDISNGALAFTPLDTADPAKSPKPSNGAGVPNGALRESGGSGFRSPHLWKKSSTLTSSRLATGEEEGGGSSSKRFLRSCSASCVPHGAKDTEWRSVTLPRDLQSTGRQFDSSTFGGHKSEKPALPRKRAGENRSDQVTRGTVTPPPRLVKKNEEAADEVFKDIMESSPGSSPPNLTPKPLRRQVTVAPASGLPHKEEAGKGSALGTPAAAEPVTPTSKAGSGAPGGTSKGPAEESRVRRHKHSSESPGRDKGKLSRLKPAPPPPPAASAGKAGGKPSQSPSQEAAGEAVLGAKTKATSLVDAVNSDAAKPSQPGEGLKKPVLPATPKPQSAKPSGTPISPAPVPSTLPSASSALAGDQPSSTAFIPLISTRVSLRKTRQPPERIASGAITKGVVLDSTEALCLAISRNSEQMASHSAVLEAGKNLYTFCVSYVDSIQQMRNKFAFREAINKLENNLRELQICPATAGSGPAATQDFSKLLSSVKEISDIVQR
smiles,measurement,setting,value
O=C(Cc1ccc(-c2ccc(OCCN3CCOCC3)cc2)cn1)NCc1ccccc1 [KX2-391],percent activity of isolated kinase relative to control,Abl(h),120%
same,percent activity of isolated kinase relative to control,CHK1(h),105%
same,percent activity of isolated kinase relative to control,Fyn(h),85%
same,percent activity of isolated kinase relative to control,IGF-1R(h),101%
same,percent activity of isolated kinase relative to control,IR(h),112%
same,percent activity of isolated kinase relative to control,Lck(h),109%
same,percent activity of isolated kinase relative to control,PDGFRβ(h),110%
same,percent activity of isolated kinase relative to control,ZAP-70(h),108%
same,phosphorylation of Paxillin Y-31 (Src transphosphorylation),Paxillin Y-31,inhibited
O=C(Cc1ccc(-c2ccc(OCCN3CCOCC3)cc2)cn1)NCc1ccccc1 [KXO1],GI50,PC3-MM2 (Prostate),8.9 nM
same,GI50,[1],12 nM
same,GI50,[2],35 nM
same,IC50,LN-18,14.5 nM
same,GI50,Caki-2,39.2 nM
same,IC50,H226,98 nM
same,IC80,H226,277 nM
same,IC90,H226,490 nM
same,Src-Y416 autophosphorylation,[3],potent inhibitor
same,phosphorylation of JAK1 Y1022/1023,JAK1 Y1022/1023,not inhibited
same,phosphorylation of Lck Y405,Lck Y405,not inhibited
same,phosphorylation of ZAP70 Y319,ZAP70 Y319,not inhibited
same,phosphorylation of Lyn Y416,Lyn Y416,inhibited less potently
